Results published in patent US20250376446A1, “[…] OF A […] CANNABINOID” (Jazz Pharmaceuticals Research UK Limited, priority 2022, published 2025).

How the values were obtained:
[1] = tested on: mouse model of generalised seizure (tonic hind limb extensor convulsions); test: Maximal electroshock seizure threshold (MEST) test in the mouse; settings: for % change from vehicle (CC50) / CC50 +/- SEM: 30 min post dose
Procedure: The efficacy of compound 1 was tested in a mouse model of generalised seizure, the maximal electroshock seizure threshold (MEST) test.
The maximal electroshock seizure threshold (MEST) test is widely utilized preclinically to evaluate pro-or anti-convulsant properties of test compounds (Loscher et al., 1991).
In the MEST test the ability of a drug to alter the seizure threshold current required to induce hind limb tonic extensor convulsions is measured according to an “up and down” method of shock titration (Kimball et al., 1957). An increase in seizure threshold is indicative of anti-convulsant effect.
The ability of a test compound to alter the stimulus intensity, expressed as current (mA), required to induce the presence of tonic hind limb extensor convulsions, is assessed in the MEST.
Naïve mice were acclimatised to the procedure room in their home cages for up to 7 days, with food and water available ad libitum.
All animals were weighed at the beginning of the study and randomly assigned to treatment groups based on a mean distribution of body weight across groups.
The first animal within a treatment group was given a shock at the expected or estimated CC50 current. For subsequent animals, the current was lowered or raised depending on the convulsions outcome from the preceding animal, in intervals of 5 mA.
Data generated from each treatment group were used to calculate the CC50+SEM values for the treatment group.
Vehicle: (5% ethanol, 10% solutol, 85% Saline) was prepared as follows: 1 mL of ethanol, 2 mL of solutol were warmed to 60° C., in 17 mL of saline (1:2:17).
The test compound (compound 1) was administered at 2, 20 and 200 mg/kg (i.p.) in a 1:2:17 ethanol: solutol: 0.9% saline formulation.
The data for each treatment group were recorded as the number of +'s and 0's at each current level employed and this information is then used to calculate the CC50 value (current required for 50% of the animals to show seizure behaviour)±standard error.
Test compound effects were also calculated as percentage change in CC50 from the vehicle control group.
Significant difference between drug-treated animals and controls were assessed according to Litchfield and Wilcoxon (1949).

[2] = Stability of Form B to milling (ball mill, XRPD); type: physicochemical; settings: no solvent, mill at 25 Hz, 3 x 2 mins; for Output Form (milling experiment): XRPD
Procedure: A ball mill was used to mimic the effects of grinding that would be experienced during formulation steps such as dry blending and wet granulation. Form B (50 mg) was added to a milling chamber with an agate milling ball. Using a Retsch MM200 mixer mill, the material was milled for 6-10 minutes at a frequency of 25 Hz. Periodically, the milling was stopped and powder that adhered to the milling chamber was scraped down. The resultant milled material was analysed using XRPD.

[3] = Stability of Form B to compression (die press, XRPD); type: physicochemical; settings: compression @ 370 MPa for 24 hrs; for Output Form (compression experiment): XRPD
Procedure: A die press was used to mimic the uniaxial stress experienced during formulation steps such as tableting. Form B (50 mg) was added to a KBr pellet die and compressed overnight at ˜370 MPa using a hydraulic press. The resultant solid disc was removed from the press and immediately analysed by XRPD.

[4] = Stability of Form B to humidity stress (XRPD); type: physicochemical; settings: 40° C./75% RH for 8 days
Procedure: Form B material was exposed to high humidity conditions to determine stability on storage. Approximately 20 mg of Form B material was added to a vial and placed unsealed into a sealed cabinet with a relative humidity of 75% (controlled by a super-saturated salt solution) and a temperature of 40° C. for 8 days. The resultant material was analysed by XRPD.

[5] = Retest of Form C after storage at ambient conditions; type: physicochemical; settings: 6 days storage at ambient conditions

## C=C(C)[C@@H]1CCC(C)=C[C@H]1c1c(O)cc(-c2cnn(C)c2)cc1O [Compound 1, (1′R,2′R)-5′-methyl-4-(1-methyl-1H-pyrazol-4-yl)-2′-(prop-1-en-2-yl)-1′,2′,3′,4′-tetrahydro-[1,1′-biphenyl]-2,6-diol]
[1]; i.p., 2 mg/kg
  % change from vehicle (CC50): 27%
  CC50 +/- SEM: 30.8 ± 1.0 mA
[1]; i.p., 20 mg/kg
  % change from vehicle (CC50): 116%
  CC50 +/- SEM: 52.5 ± 1.3 mA
[1]; i.p., 200 mg/kg
  % change from vehicle (CC50): 712%
  CC50 +/- SEM: 197.5 ± 20.4 mA
[1]; i.p., 2, 20 and 200 mg/kg
  Effect on MEST (in words): dose-related increase in MEST
[1]; i.p., 30 minutes before the test, all three doses (2, 20, 200 mg/kg)
  CC50 value compared to vehicle (in words): statistically significant

## CN1C(=O)CN=C(c2ccccc2)c2cc(Cl)ccc21 [Diazepam, diazepam, reference compound]
[1]; i.p., 2.5 mg/kg
  % change from vehicle (CC50): 223%

## C=C(C)[C@@H]1CCC(C)=C[C@H]1c1c(O)cc(-c2cnn(C)c2)cc1O [Form B, (1′R,2′R)-5′-methyl-4-(1-methyl-1H-pyrazol-4-yl)-2′-(prop-1-en-2-yl)-1′,2′,3′,4′-tetrahydro-[1,1′-biphenyl]-2,6-diol]
[2]
  Result (milling experiment): solid
  Output Form (milling experiment): did not undergo a change in form
[2]; listed as B
  Output Form (milling experiment): B (disordered)
[3]
  Result (compression experiment): solid
  Output Form (compression experiment): stable to compression
[3]; listed as B
  Output Form (compression experiment): B (slight disorder)
[4]
  Result (humidity stress experiment): solid
[4]; XRPD
  Output Form (humidity stress experiment): stable to storage

## C=C(C)[C@@H]1CCC(C)=C[C@H]1c1c(O)cc(-c2cnn(C)c2)cc1O [Form C, (1′R,2′R)-5′-methyl-4-(1-methyl-1H-pyrazol-4-yl)-2′-(prop-1-en-2-yl)-1′,2′,3′,4′-tetrahydro-[1,1′-biphenyl]-2,6-diol]
[5]
  Form after storage: converted to a Form A
